# Data: patent publication US20090258053A1, “MEDICAL STENT PROVIDED WITH A COMBINATION OF MELATONIN AND PACLITAXEL” (Blue Medical Deevices BV, priority 2006, published 2009)
# Several values for one entry are separate records, joined by “and”; a condition that tells them apart may be missing. Identical values can stand only once.
# What was measured:
# [1] = test system: HUVEC (Human Umbilical Vein Endothelial Cells); assay: [3H]-thymidine incorporation, HUVEC stimulated with VEGF-A; type: cell-based; conditions: VEGF A 10 ng/ml 24 hours
# Procedure: To investigate, whether melatonin has similar effects on other cell types, HUVEC (Human Umbilical Vein Endothelial Cells, Promocell) were tested. HUVEC were cultured in the corresponding complete medium (Endothelial Cell Growth Medium: ECGS/H 0.4%, Fetal Calf Serum 2%, Epidermal Growth Factor 0.1 ng/ml, Hydrocortison 1 μg/ml, basic Fibroblast Factor 1 ng/ml, Amphotericin B 50 ng/ml, Gentamicin 50 μg/ml). 24 hours prior to stimulation, the medium was replaced by a medium containing 2% serum and antibiotics, but devoid of the other complements. Then, HUVEC were stimulated with 10 ng/ml of VEGF-A for 24 hours. HUVEC were incubated for 48 hours with Melatonin and stimulated for 24 hours with VEGF-A at 10 ng/ml. After 24 hours of stimulation, the cells were incubated with radioactive [^3H]-thymidine. Two hour later, the medium was removed and cell-bound DNA was precipitated using 5% TCA (Trichloroacetic acid). Then, [^3H]-thymidine incorporation was measured using a beta-counter.
# HCASMC = assay: CytoTox-ONE LDH release cytotoxicity assay, HCASMC; type: cell-based, human; conditions: 48 hours, 0.2 to 6 mM Melatonin
# Procedure: (§1) Cytotoxicity experiments were performed with cells cultured on 96-well plates. The CytoTox-ONE™ Assay from Promega was used to assess the membrane integrity of cells. This test is based on a fluorometric method to estimate the number of non viable cells present in multiwell plates by measuring the release of lactate dehydrogenase (LDH) from cells with damaged membranes. Subconfluent cells were incubated for 48 hours with Melatonin at concentrations between 0.2 and 6 mM. During the 48 h Melatonin incubation, the medium was not changed to avoid removal of any detached cells. As a positive control three wells of untreated cells were incubated with lysis buffer (delivered with the assay) before measurement. At the end of the Melatonin incubation period, a volume of CytoTox-ONE reagent equal to the volume of cell culture medium present in each well was added. After 10 min incubation at 22° C. (room temperature), 50 μl of stop solution was added per 100 μl of CytoTox-ONE reagent added. The plate was shaked for 10 seconds and fluorescence was recorded with an excitation wavelength of 560 nm and an emission wavelength of 590 nm (Spectramax M2 fluorescence plate reader, Molecular devices).
# [2] = test system: human coronary artery smooth muscle cells (HCASMC); assay: CellTiter 96 One solution (MTS) cell proliferation assay, HCASMC; type: cell-based
# Procedure: (§2) Human coronary artery endothelial cells (HCAEC) were purchased from Cambrex and human coronary artery smooth muscle cells (HCASMC) were purchased from Promocell. Cells were used for experiments between passage 4 and passage 12. Both cell types were cultured in their respective complete culture medium with the following composition: • HCASMC: Smooth Muscle Cell Growth Medium 2: Epidermal Growth Factor (EGF), basic Fibroblast Factor (FGF), Insulin, Fetal Calf Serum (FCS) 5%, Amphotericin B, Gentamicin. • HCAEC: Endothelial Growth Media-2 MV: hEGF, Hydrocortisone, GA-1000, FBS 5%, VEGF, hFGF-B, R3-IGF-1, Ascorbic Acid Medium was changed every other day. 24 hours prior to growth factor stimulation, the medium was replaced by fresh culture medium, however, without growth factors to increase the cellular sensitivity to the subsequent growth factor stimulation. Subconfluent HCAEC were stimulated with 10 ng/ml of VEGF-A, whereas subconfluent HCASMC were stimulated with 10 ng/ml of PDGF-BB. Likewise, both cell types were stimulated with 25% of human serum (final concentration). Melatonin (Acros organics) was kindly provided by BlueMedical Devices BV. A stock solution was prepared in DMSO, aliquoted and stored at −20° C. For each experiment a fresh aliquot was opened and diluted to the desired final concentration in cell culture medium. All proliferation and cytotoxicity experiments were performed on cells cultured on 96 well plates (Costar). The CellTiter 96 One solution cell proliferation assay from Promega was used to assess cell proliferation in a 96-well plate. This assay makes use of the MTS tetrazolium compound as a cellular substrate. MTS is bioreduced by living cells into a coloured formazan product that is soluble in tissue culture medium and absorbs light at 490 nm. The quantity of formazan produced is directly proportional to the number of living cells in culture. After 24 h stimulation, 20 μl of MTS reagent was added to the cells cultured in 100 ul of medium per well. After 2 to 4 hours of incubation at 37° C., 5% CO2, the absorbance at 490 nm was recorded using a 96-well plate reader (Tecan).
# HCAEC [3] = assay: CytoTox-ONE LDH release cytotoxicity assay, HCAEC; type: cell-based, human; conditions: 48 hours, 0.2 to 6 mM Melatonin
# Procedure: as §1
# HCAEC [4] = assay: Chemotaxis towards VEGF-A, modified Boyden chamber, HCAEC; type: cell-based, human; conditions: 2 mM Melatonin; VEGF-A 10 ng/ml; migration 4 hours; performed only once
# Procedure: Chemotaxis experiments were performed using a modified Boyden chamber. The apparatus consists of two multi-well chambers separated by a filter containing pores of uniform size. A solution containing a chemokine or chemotactic factor is placed in the lower/bottom chamber and a cell suspension is placed in the upper chamber. Cells can migrate through the pores across the filter and towards the chemoattractant in the lower chamber. Cells that migrated across the filter and remain attached to the lower side of the membrane are counted. Data are expressed in terms of migration index: the number of cells that migrated in response to agonist stimulation compared to the number of cells that migrated randomly, i.e. to medium only. Chemotaxis experiments so far were only performed with HCAEC. For these cells a 25×80 mm polycarbonate filter, […] (PVP) free was used (Whatman) with a pore size of […]. Before migration the filter was coated with collagen. Endothelial cells were incubated with Melatonin at 2 mM prior to and during migration. After 24 hours pre-incubation with Melatonin, untreated and Melatonin-treated cells were detached with trypsin and a cell suspension (0.5 million cells/ml) was loaded in the upper part of the chamber. […] At the end of migration, cells were fixed on the filter, stained with Giemsa and counted using a regular optic microscope.
# [5] = test system: human coronary artery endothelial cells (HCAEC); assay: CellTiter 96 One solution (MTS) cell proliferation assay, HCAEC; type: cell-based
# Procedure: as §2
compound,measurement,setting,value
"COc1ccc2[nH]cc(CCNC(C)=O)c2c1 [Melatonin, N-acetyl-5-methoxytryptamine]",effect on HUVEC,"[1]; 0.2 mM Melatonin, 48 hours",inhibitory effect
same,VEGF-A induced [3H]-thymidine incorporation,[1]; Melatonin 48 hours,completely inhibited
same,cytotoxic effect (LDH release) on HCASMC,HCASMC,does not induce any detectable cytotoxic effect
same,concentrations at which proliferation of HCASMC is strongly inhibited,[2],higher than 0.2 mM
same,effect on number of smooth muscle cells,"[2]; 1 mM Melatonin, 24 hours pre-treatment, PDGF BB 10 ng/ml 24 h",significant decrease in the number of smooth muscle cells
same,effect on the proliferation of HCASMC,"[2]; Melatonin up to 0.1 mM, PDGF BB 10 ng/ml 24 h",no significant effect
same,concentration of maximal inhibitory effect on HCASMC,[2]; PDGF-BB stimulated,5 mM
same,inhibitory effect on HCASMC at higher concentrations,"[2]; above 5 mM, up to 10 mM",no significant further increase in the inhibitory effect
same,cytotoxic effect (LDH release) on HCAEC,HCAEC [3],does not induce any detectable cytotoxic effect
same,effect on chemotactic response of HCAEC towards VEGF-A,HCAEC [4],did not have any significant effect
same,concentrations at which proliferation of HCAEC is strongly inhibited,[5],higher than 0.2 mM
same,effect on HCAEC cell number,[5]; Melatonin between 1 mM and 6 mM,dramatic decrease in cell number
same,sensitivity of HCAEC proliferation,[5]; Melatonin up to 0.1 mM,not sensitive
same,concentration of maximal effect on HCAEC cell number,[5]; subconfluent cells,3 mM and 6 mM
